Experimental data as given in ChEMBL document CHEMBL4130548, “Exploration of 1,2,3-triazole-pyrimidine hybrids as potent reversal agents against ABCB1-mediated multidrug resistance” (Eur J Med Chem, 2018).

Tests used:
Type in all cases: cell-based
[1] = target: T1, ATP-dependent translocase ABCB1 (Homo sapiens, UniProt P08183); test: Inhibition of ABCB1 in human SW620/AD300 cells assessed as potentiation of paclitaxel-induced cytotoxicity by measuring fold reduction in paclitaxel IC50 at 2 uM preincubated for 4 hrs followed by paclitaxel addition measured after 72 hrs by MTT assay
T1 sequence (P08183 whole entry): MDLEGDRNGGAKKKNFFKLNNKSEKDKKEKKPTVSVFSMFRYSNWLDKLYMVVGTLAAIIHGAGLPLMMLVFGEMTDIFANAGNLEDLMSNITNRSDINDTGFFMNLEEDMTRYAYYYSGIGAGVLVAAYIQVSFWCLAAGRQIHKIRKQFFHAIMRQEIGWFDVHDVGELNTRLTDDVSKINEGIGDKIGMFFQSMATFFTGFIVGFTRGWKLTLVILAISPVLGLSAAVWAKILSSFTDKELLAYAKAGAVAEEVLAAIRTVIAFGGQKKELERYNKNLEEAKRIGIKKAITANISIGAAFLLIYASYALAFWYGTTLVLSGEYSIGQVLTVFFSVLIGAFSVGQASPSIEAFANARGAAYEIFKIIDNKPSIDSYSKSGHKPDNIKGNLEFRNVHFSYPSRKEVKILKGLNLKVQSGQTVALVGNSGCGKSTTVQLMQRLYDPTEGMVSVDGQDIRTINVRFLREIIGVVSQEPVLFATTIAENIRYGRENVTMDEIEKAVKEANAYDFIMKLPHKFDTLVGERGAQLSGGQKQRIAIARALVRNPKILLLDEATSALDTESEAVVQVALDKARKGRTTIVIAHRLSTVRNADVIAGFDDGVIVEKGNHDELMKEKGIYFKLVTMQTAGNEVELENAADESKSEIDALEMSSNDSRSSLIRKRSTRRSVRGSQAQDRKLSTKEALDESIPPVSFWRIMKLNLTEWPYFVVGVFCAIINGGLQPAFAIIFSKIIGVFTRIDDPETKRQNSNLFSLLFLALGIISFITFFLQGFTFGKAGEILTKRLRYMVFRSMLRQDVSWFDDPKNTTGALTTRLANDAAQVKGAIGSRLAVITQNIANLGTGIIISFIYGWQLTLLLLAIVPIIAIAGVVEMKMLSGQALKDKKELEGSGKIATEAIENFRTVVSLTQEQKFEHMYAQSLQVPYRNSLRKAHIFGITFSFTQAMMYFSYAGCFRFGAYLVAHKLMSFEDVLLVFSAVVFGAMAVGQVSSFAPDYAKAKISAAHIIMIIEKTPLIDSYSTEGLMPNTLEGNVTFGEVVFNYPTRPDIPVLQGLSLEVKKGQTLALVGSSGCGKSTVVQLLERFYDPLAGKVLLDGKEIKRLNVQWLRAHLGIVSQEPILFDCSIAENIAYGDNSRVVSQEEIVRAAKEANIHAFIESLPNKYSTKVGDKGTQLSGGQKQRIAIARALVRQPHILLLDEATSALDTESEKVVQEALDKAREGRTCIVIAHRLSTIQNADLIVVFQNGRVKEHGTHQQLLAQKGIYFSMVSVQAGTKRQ

[2] = target: T1, ATP-dependent translocase ABCB1; test: Inhibition of ABCB1 in human SW620/AD300 cells assessed as potentiation of colchicine-induced cytotoxicity by measuring fold reduction in colchicine IC50 at 2 uM preincubated for 4 hrs followed by […] measured after 72 hrs by MTT assay
[3] = target: T1, ATP-dependent translocase ABCB1; test: Binding affinity at ABCB1 in human SW620/AD300 cells assessed as thermal stabilization at 2 uM preincubated for 4 hrs followed by incubation 40 to 61 degC for 3 mins by CETSA; settings: 0.05 h
[4] = target: T1, ATP-dependent translocase ABCB1; test: Inhibition of ABCB1 in human SW620/AD300 cells assessed as potentiation of paclitaxel-induced cytotoxicity by measuring fold reduction in paclitaxel IC50 at 2 uM preincubated for 4 hrs followed by paclitaxel addition measured after 72 hrs by MTT assay relative to verapamil
[5] = target: T1, ATP-dependent translocase ABCB1; test: Inhibition of ABCB1 in human SW620/AD300 cells assessed as reduction in Rh123 efflux at 2 uM treated followed by Rh123 addition in Rh123 free medium for 30 to 120 mins by flow cytometry
[6] = target: T1, ATP-dependent translocase ABCB1; test: Inhibition of ABCB1 (unknown origin) expressed in HEK293T cells assessed as potentiation of colchicine-induced cytotoxicity by measuring fold reduction in colchicine IC50 at 2 uM preincubated for 4 hrs followed by […] measured after 72 hrs by MTT assay
[7] = target: T1, ATP-dependent translocase ABCB1; test: Inhibition of ABCB1 in human SW620/AD300 cells assessed as reduction in paclitaxel efflux at 2 uM treated followed by 2 hrs of paclitaxel treatment in paclitaxel free medium for 30 mins by flow cytometry
[8] = target: T1, ATP-dependent translocase ABCB1; test: Inhibition of ABCB1 (unknown origin) expressed in HEK293T cells assessed as potentiation of paclitaxel-induced cytotoxicity by measuring fold reduction in paclitaxel IC50 at 2 uM preincubated for 4 hrs followed by paclitaxel addition measured after 72 hrs by MTT assay
[9] = target: T1, ATP-dependent translocase ABCB1; test: Inhibition of ABCB1 in human SW620/AD300 cells assessed as increase in Rh123 accumulation at 2 uM preincubated or 4 hrs followed by Rh123 addition measured after 30 mins by flow cytometry; settings: 0.5 h
[10] = target: T1, ATP-dependent translocase ABCB1; test: Inhibition of ABCB1 in human SW620/AD300 cells assessed as potentiation of colchicine-induced cytotoxicity by measuring fold reduction in colchicine IC50 at 2 uM preincubated for 4 hrs followed by […] measured after 72 hrs by MTT assay relative to verapamil

Compound: N#Cc1c(Nc2cccc(Cl)c2)nc(SCc2cn(Cc3ccccc3Cl)nn2)nc1-c1ccccc1
- fold change (FC) [1]: 21.52

Compound: Cc1cccc(Nc2nc(SCc3cn(Cc4ccccc4Cl)nn3)nc(-c3ccccc3)c2C#N)c1
- fold change (FC) [1]: 8.7

Compound: COc1cc(-c2nc(SCc3cn(Cc4ccccc4Cl)nn3)nc(Nc3ccc(C)cc3)c2C#N)cc(OC)c1OC
- fold change (FC) [1]: 34.08

Compound: C#CCSc1nc(Nc2ccc(OC)cc2)c(C#N)c(-c2ccccc2)n1
- fold change (FC) [1]: 1.92

Compound: Cc1ccc(Nc2nc(SCc3cn(Cc4ccccc4Cl)nn3)nc(-c3ccc(Br)cc3)c2C#N)cc1
- fold change (FC) [1]: 3.61

Compound: N#Cc1c(Nc2ccccc2)nc(SCc2cn(Cc3ccccc3Cl)nn2)nc1-c1ccccc1
- fold change (FC) [1]: 7.86

Compound: C#CCSc1nc(Nc2cccc(Cl)c2)c(C#N)c(-c2ccccc2)n1
- fold change (FC) [1]: 1.36

Compound: C#CCSc1nc(Nc2ccc(Cl)cc2)c(C#N)c(-c2ccccc2)n1
- fold change (FC) [1]: 1.64

Compound: N#Cc1c(Nc2cccc([N+](=O)[O-])c2)nc(SCc2cn(Cc3ccccc3Cl)nn2)nc1-c1ccccc1
- fold change (FC) [1]: 5.68

Compound: Cc1ccc(Nc2nc(SCc3cn(Cc4ccccc4Cl)nn3)nc(-c3ccc(C(C)C)cc3)c2C#N)cc1
- fold change (FC) [1]: 51.12

Compound: N#Cc1c(Nc2ccccc2F)nc(SCc2cn(Cc3ccc(Cl)cc3)nn2)nc1-c1ccccc1
- fold change (FC) [1]: 1.35

Compound: C#CCSc1nc(Nc2cccc(C(F)(F)F)c2)c(C#N)c(-c2ccccc2)n1
- fold change (FC) [1]: 1.2

Compound: COc1ccccc1Nc1nc(SCc2cn(Cc3ccccc3Cl)nn2)nc(-c2ccccc2)c1C#N
- fold change (FC) [1]: 2.29

Compound: Cc1ccc(Nc2nc(SCc3cn(Cc4ccccc4Cl)nn3)nc(-c3ccccc3)c2C#N)cc1
- fold change (FC) [1]: 3.58

Compound: Cc1ccc(Nc2nc(SCc3cn(Cc4ccc(Cl)cc4)nn3)nc(-c3ccccc3)c2C#N)cc1
- fold change (FC) [1]: 8.7

Compound: N#Cc1c(Nc2ccc(F)cc2)nc(SCc2cn(Cc3ccccc3Cl)nn2)nc1-c1ccccc1
- fold change (FC) [1]: 1.01

Compound: Cc1ccc(Nc2nc(SCc3cn(Cc4ccccc4Cl)nn3)nc(-c3ccc(C)cc3)c2C#N)cc1
- fold change (FC) [1]: 17.04

Compound: N#Cc1c(Nc2cccc(C(F)(F)F)c2)nc(SCc2cn(Cc3ccccc3Cl)nn2)nc1-c1ccccc1
- fold change (FC) [1]: 5.84

Compound: COc1ccc(Nc2nc(SCc3cn(Cc4ccccc4Cl)nn3)nc(-c3ccccc3)c2C#N)cc1
- fold change (FC) [1]: 6.7

Compound: C#CCSc1nc(Nc2ccccc2Cl)c(C#N)c(-c2ccccc2)n1
- fold change (FC) [1]: 1.32

Compound: Cc1ccc(Nc2nc(SCc3cn(Cc4ccc(F)cc4)nn3)nc(-c3ccccc3)c2C#N)cc1
- fold change (FC) [1]: 1.03

Compound: Cc1ccc(Cn2cc(CSc3nc(Nc4ccccc4C)c(C#N)c(-c4ccccc4)n3)nn2)cc1
- fold change (FC) [1]: 4.44

Compound: Cc1ccccc1Nc1nc(SCc2cn(Cc3ccc(Cl)cc3)nn2)nc(-c2ccccc2)c1C#N
- fold change (FC) [2]: 5.04
- Activity [3]: Active
- fold change (FC) [4]: 7
- inhibition (INH) [5]: Active
- fold change (FC) [1]: 136.33
- fold change (FC) [6]: 31.31
- inhibition (INH) [7]: Active
- fold change (FC) [8]: 4.53
- inhibition (INH) [9]: Active
- fold change (FC) [10]: 2

Compound: Cc1ccc(Nc2nc(SCc3cn(Cc4ccccc4Cl)nn3)nc(-c3ccc(Cl)cc3)c2C#N)cc1
- fold change (FC) [1]: 5.31

Compound: Cc1ccc(Cn2cc(CSc3nc(Nc4ccc(C)cc4)c(C#N)c(-c4ccccc4)n3)nn2)cc1
- fold change (FC) [1]: 4.35

Compound: Cc1ccccc1Nc1nc(SCc2cn(Cc3ccccc3Cl)nn2)nc(-c2ccccc2)c1C#N
- fold change (FC) [1]: 5.6

Compound: Cc1ccc(Cn2cc(CSc3nc(Nc4ccccc4F)c(C#N)c(-c4ccccc4)n3)nn2)cc1
- fold change (FC) [1]: 1

Compound: N#Cc1c(Nc2ccccc2F)nc(SCc2cn(Cc3ccccc3Cl)nn2)nc1-c1ccccc1
- fold change (FC) [1]: 8.7

Compound: Cc1ccc(Cn2cc(CSc3nc(Nc4ccccc4Cl)c(C#N)c(-c4ccccc4)n3)nn2)cc1
- fold change (FC) [1]: 1.09

Compound: N#Cc1c(Nc2ccc(Cl)cc2)nc(SCc2cn(Cc3ccccc3Cl)nn2)nc1-c1ccccc1
- fold change (FC) [1]: 2.02

Compound: N#Cc1c(Nc2ccccc2Cl)nc(SCc2cn(Cc3ccccc3Cl)nn2)nc1-c1ccccc1
- fold change (FC) [1]: 24.06
